In ChEMBL document CHEMBL1201862, “PubChem BioAssay data set” (2004):
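Tested at 5 concentrations; 48 h exposure; 96-well plates; endpoints linearly interpolated, else capped at highest concentration. Here, GI50 denotes the concentration required for 50% inhibition of growth.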 Calls of active or inactive are those of the source. Cut-off read from the data, not from the text of the source: active = GI50 up to about 1.1 µM and inactive = higher.

Assays:
Experiment in all cases: DTP human tumour cell line panel, 48 h
Hs-578T = system: Hs-578T
UACC-62 = system: UACC-62
SNB-19 = system: SNB-19
HL-60 = system: HL-60
CCRF-CEM = system: CCRF-CEM
HCT-116 = system: HCT-116
SK-MEL-5 = system: SK-MEL-5
HCC 2998 = system: HCC 2998
EKVX = system: EKVX
BT-549 = system: BT-549
SF-295 = system: SF-295
MDA-MB-231 = system: MDA-MB-231
SF-539 = system: SF-539
786-0 = system: 786-0
MDA-MB-435 = system: MDA-MB-435
OVCAR-4 = system: OVCAR-4
UACC-257 = system: UACC-257
COLO 205 = system: COLO 205
PC-3 = system: PC-3
MOLT-4 = system: MOLT-4
M14 = system: M14
SW-620 = system: SW-620
U-251 = system: U-251
HOP-62 = system: HOP-62
MCF7 = system: MCF7
HT-29 = system: HT-29
RPMI-8226 = system: RPMI-8226
HCT-15 = system: HCT-15
OVCAR-8 = system: OVCAR-8
K562 = system: K562
NCI-H23 = system: NCI-H23
SK-OV-3 = system: SK-OV-3
LOX IMVI = system: LOX IMVI
NCI-H226 = system: NCI-H226
ACHN = system: ACHN
UO-31 = system: UO-31
SK-MEL-28 = system: SK-MEL-28
DU-145 = system: DU-145
IGROV-1 = system: IGROV-1
SK-MEL-2 = system: SK-MEL-2
SNB-75 = system: SNB-75
NCI/ADR-RES = system: NCI/ADR-RES
RXF 393 = system: RXF 393
SF-268 = system: SF-268
CAKI-1 = system: CAKI-1
HOP-92 = system: HOP-92
A498 = system: A498
SR = system: SR
KM12 = system: KM12
T47D = system: T47D
NCI-H460 = system: NCI-H460
TK-10 = system: TK-10
A549 = system: A549
NCI-H522 = system: NCI-H522
MDA-N = system: MDA-N
SN12C = system: SN12C
OVCAR-5 = system: OVCAR-5
Malme-3M = system: Malme-3M

## O=c1[nH]c2ccc(C(F)(F)F)cc2nc1Cc1ccccc1
Hs-578T
  GI50: 22.3 µM (inactive)
UACC-62
  GI50: 42.9 µM (inactive)
SNB-19
  GI50: 53 µM (inactive)
HL-60
  GI50: 34.8 µM (inactive)
CCRF-CEM
  GI50: 29.4 µM (inactive)
HCT-116
  GI50: 37.2 µM (inactive)
SK-MEL-5
  GI50: 24.7 µM (inactive)
HCC 2998
  GI50: 24.1 µM (inactive)
EKVX
  GI50: 25.8 µM (inactive)
BT-549
  GI50: 34 µM (inactive)
SF-295
  GI50: 33.5 µM (inactive)
MDA-MB-231
  GI50: 37.8 µM (inactive)
SF-539
  GI50: 31.3 µM (inactive)
786-0
  GI50: 35.5 µM (inactive)
MDA-MB-435
  GI50: 28.4 µM (inactive)
OVCAR-4
  GI50: 33.4 µM (inactive)
UACC-257
  GI50: 67.1 µM (inactive)
COLO 205
  GI50: 18.1 µM (inactive)
PC-3
  GI50: 26.4 µM (inactive)
MOLT-4
  GI50: 16.2 µM (inactive)
M14
  GI50: 29.9 µM (inactive)
SW-620
  GI50: 39.4 µM (inactive)
U-251
  GI50: 45.7 µM (inactive)
HOP-62
  GI50: 33 µM (inactive)
MCF7
  GI50: 28.7 µM (inactive)
HT-29
  GI50: 25.4 µM (inactive)
RPMI-8226
  GI50: 39.2 µM (inactive)
HCT-15
  GI50: 36.1 µM
OVCAR-8
  GI50: 39.5 µM (inactive)
K562
  GI50: 38.5 µM (inactive)
NCI-H23
  GI50: 19.6 µM (inactive)
SK-OV-3
  GI50: 44.9 µM (inactive)
LOX IMVI
  GI50: 40 µM (inactive)
NCI-H226
  GI50: 17.7 µM (inactive)
ACHN
  GI50: 29.1 µM (inactive)
UO-31
  GI50: 37.3 µM (inactive)
SK-MEL-28
  GI50: 39.7 µM (inactive)
DU-145
  GI50: 34.4 µM (inactive)
IGROV-1
  GI50: 23.4 µM (inactive)
SK-MEL-2
  GI50: 24.7 µM (inactive)
SNB-75
  GI50: 45.9 µM (inactive)
NCI/ADR-RES
  GI50: 18.5 µM (inactive)
RXF 393
  GI50: 27.2 µM (inactive)
SF-268
  GI50: 35.2 µM (inactive)
CAKI-1
  GI50: 49.2 µM (inactive)
HOP-92
  GI50: 18.7 µM (inactive)
A498
  GI50: 26.6 µM (inactive)
SR
  GI50: > 100 µM (inactive)
KM12
  GI50: 31.6 µM (inactive)
T47D
  GI50: 40.5 µM (inactive)
NCI-H460
  GI50: 27.9 µM (inactive)
TK-10
  GI50: > 100 µM (inactive)

## Cc1cn([C@@H]2C[C@](C)(CO)N(C)O2)c(=O)[nH]c1=O
Hs-578T
  GI50: > 100 µM (inactive)
UACC-62
  GI50: > 100 µM (inactive)
A549
  GI50: > 100 µM (inactive)
SNB-19
  GI50: > 100 µM (inactive)
HL-60
  GI50: > 100 µM (inactive)
CCRF-CEM
  GI50: > 100 µM (inactive)
HCT-116
  GI50: > 100 µM (inactive)
SK-MEL-5
  GI50: > 100 µM (inactive)
HCC 2998
  GI50: > 100 µM (inactive)
EKVX
  GI50: > 100 µM (inactive)
BT-549
  GI50: > 100 µM (inactive)
SF-295
  GI50: > 100 µM (inactive)
MDA-MB-231
  GI50: > 100 µM (inactive)
786-0
  GI50: > 100 µM (inactive)
NCI-H522
  GI50: > 100 µM (inactive)
MDA-MB-435
  GI50: > 100 µM (inactive)
OVCAR-4
  GI50: > 100 µM (inactive)
UACC-257
  GI50: > 100 µM (inactive)
COLO 205
  GI50: > 100 µM (inactive)
PC-3
  GI50: > 100 µM (inactive)
MDA-N
  GI50: > 100 µM (inactive)
M14
  GI50: > 100 µM (inactive)
SW-620
  GI50: > 100 µM (inactive)
U-251
  GI50: > 100 µM (inactive)
HOP-62
  GI50: > 100 µM (inactive)
MCF7
  GI50: > 100 µM (inactive)
HT-29
  GI50: > 100 µM (inactive)
RPMI-8226
  GI50: > 100 µM (inactive)
HCT-15
  GI50: > 100 µM
OVCAR-8
  GI50: > 100 µM (inactive)
K562
  GI50: > 100 µM (inactive)
NCI-H23
  GI50: > 100 µM (inactive)
SN12C
  GI50: > 100 µM (inactive)
SK-OV-3
  GI50: > 100 µM (inactive)
LOX IMVI
  GI50: > 100 µM (inactive)
NCI-H226
  GI50: > 100 µM (inactive)
ACHN
  GI50: > 100 µM (inactive)
UO-31
  GI50: > 100 µM (inactive)
SK-MEL-28
  GI50: > 100 µM (inactive)
DU-145
  GI50: > 100 µM (inactive)
IGROV-1
  GI50: > 100 µM (inactive)
SK-MEL-2
  GI50: > 100 µM (inactive)
SNB-75
  GI50: 8.53 µM (inactive)
NCI/ADR-RES
  GI50: > 100 µM (inactive)
OVCAR-5
  GI50: > 100 µM (inactive)
RXF 393
  GI50: > 100 µM (inactive)
SF-268
  GI50: > 100 µM (inactive)
CAKI-1
  GI50: > 100 µM (inactive)
HOP-92
  GI50: > 100 µM (inactive)
A498
  GI50: > 100 µM (inactive)
SR
  GI50: > 100 µM (inactive)
KM12
  GI50: > 100 µM (inactive)
Malme-3M
  GI50: > 100 µM (inactive)
NCI-H460
  GI50: > 100 µM (inactive)
TK-10
  GI50: > 100 µM (inactive)
